Where two headings read alike, the source gives them in different places.
Tests used:
Assay type in all cases: cell-based
[1] = system: Wnt signaling pathway (Top-Flash reporter gene); assay: Top-Flash Wnt reporter gene assay in HEK293T cells with Wnt3a conditioned medium; conditions: Homo sapiens, HEK-293T, 6 h, 6 h
Procedure: HEK293T cells were cultured in DMEM containing 10% fetal bovine serum (Invitrogen) at 37° C., 5% CO2. The cells were passaged every other day. The density was retained at 70˜80% during passage. L cell line (CRL-2647, purchased from the gene bank of ATCC, the US) and the control cell line (CRL-2648, purchased from ATCC, US), which stably secreted mouse Wnt3a protein, were cultured in DMEM containing 50 ug/ml G418 and 10% fetal bovine serum, at 37° C., 5% CO2. When the cells grew to a density of about 70%, the medium was replaced with DMEM containing 10% fetal bovine serum. After continuous culture for 4 days, the culture was collected and centrifuged, and the supernatant was kept so that the Wnt conditioned medium was obtained. After titration assay, the conditioned medium was quick-frozen in liquid nitrogen, and placed at −80° C. for long-term storage, so that the titer was kept unchanged.
The cells were seeded to a 48-well plate at a density of […] cells per well, and transfected 20 h later. The reagents for plasmid transfection were calculated based on the amount in each well of the 48-well plate as following: the total amount of plasmid was 125 ng/well; the plasmid was first added to a serum-free medium (25 μL/well) and mixed well; PLUS reagent (Invitrogen) was then added in an amount of 0.5 μL/well and mixed well, then stood for 15 min; Lipofectamine (Invitrogen) liposome was added in an amount of 0.5 μL/well to serum-free DMEM medium (25 μL/well), and then mixed with the solution containing the plasmid and the PLUS, and stood for 15 min. The cells were cultured in serum-free DMEM medium (100 μL/well), and the final mixture of plasmid, PLUS and Lipofectamine were added to the cells. After incubation for 3 h, the transfection was stopped by the medium containing 10% fetal bovine serum (200 μL/well).
The HEK293T cells used for activity assay of the report gene were transfected by the method as shown in 2). Activity assay of Wnt reporter gene: the amount of plasmid for transfection was 5 ng/well for TOP-flash and 5 ng/well for GFP plasmid as internal standard, with lacZ added to reach a total amount of 125 ng/well. […] After treating for 6 h, Boehringer Mannheim Luci-ferase Assay Kit was used to lyse cells (200 μL/well). 50 μL from each well was pipetted into a 96-well plate. The indensity of GFP protein in the cell lysate was measured by fluorimeter FL600 (BIO-TEK Inc. Winooski, Vt.), and taken as internal standard for cell transfection efficiency. 10 μL substrate of luciferase was then added to each well, and the activity of luciferase was measured by Micro Lumate Plus (Perkin Elmer Inc. Wellesley, Mass.) luminometer. Finally, GFP indensity was used as internal standard to calibrate the activity of luciferase, i.e. the activity of Wnt reporter gene.
Calculation of IC50 (taking the calculation of IC50 of the Wnt signaling pathway for example): background (the activity as measured in the groups treated with a conditioned medium containing DMSO only) was subtracted from the reporter gene activity as measured in the groups treated by Wnt3a conditioned medium with or without the compound to be tested at different concentrations; and the obtained value was defined as the activity of the reporter gene induced by Wnt or the residual activity of the reporter gene after adding the compound to be tested. The residual activity was normalized by the activity induced by Wnt to get the relative residual activity. Then combine with the concentrations of the compound to be tested to plot a linear graph, and a dose-effect curve was fitted based on 4-parameter logistic fit. IC50 of the Wnt signaling pathway is determined as the concentration at which the relative residual activity is 0.5.

[2] = system: SW-480 (human colon cancer cells); assay: MTT inhibition of tumor cell growth, SW-480; conditions: Homo sapiens, SW480, 48 h, Table 1, 7-hydroxy derivatives of S-3, read-out: IC50 SW-480
Procedure: (§1) 1. Inoculating cells: the culture medium DMEM or RMPI1640 containing 10% fetal bovine serum was used to prepare a single cell suspension, and the cell suspension was inoculated to a 96-well plate at 5000-10000 cells per well (100 μl for each well); Adherent cells were inoculated and cultured for 12 h in advance. HL-60 (human promyelocytic leukemia cells), SMMC-7721 (human hepatoma cells), A-549 (Human lung adenocarcinoma cells), MCF-7 (human breast cancer cells), SW-480 (human colon cancer cells) were purchased from the Cell Bank of the Chinese Academy of Sciences, Shanghai.
(§2) 2. The solution of the compound to be tested (40 μM for primary screening; 5 concentrations were set for gradient re-screening for the compounds which achieve about 50% inhibition of tumor cell growth at 40 μM) was added, the final volume of each well was 200 μl, and triplicate wells were set for each test.
(§3) 3. Coloration: After culturing at 37° C. for 48 h, MTT solution (20 μl) was added to each well. After incubation for another 4 h, the culture was stopped. The supernatant in each well was pipetted and discarded, and 200 μl SDS solution (10%) was added to each well. Incubation was performed overnight (at 37° C.), to completely dissolve the crystal.
(§4) 4. Colorimetric assay: ELISA Reader (Bio-Rad 680) was used to obtain the light absorption for each well at a wavelength of 595 nm, the results were recorded. A cell growth curve was plotted with the concentration as abscissa and the cell survival percentage as ordinate. The two-point method (Reed and Muench method) was used to calculate the IC50 of the compound.

[3] = system: SMMC-7721 (human hepatoma cells); assay: MTT inhibition of tumor cell growth, SMMC-7721; conditions: Homo sapiens, SMMC-7721, 48 h, Table 1, 7-hydroxy derivatives of S-3
Procedure: as §1, §2, §3, §4

[4] = system: MCF-7 (human breast cancer cells); assay: MTT inhibition of tumor cell growth, MCF-7; conditions: Homo sapiens, MCF7, 48 h, Table 1, 7-hydroxy derivatives of S-3
Procedure: as §1, §2, §3, §4

[5] = system: HL-60 (human promyelocytic leukemia cells); assay: MTT inhibition of tumor cell growth, HL-60; conditions: Homo sapiens, HL-60, 48 h, Table 1, 7-hydroxy derivatives of S-3
Procedure: as §1, §2, §3, §4

[6] = system: A-549 (Human lung adenocarcinoma cells); assay: MTT inhibition of tumor cell growth, A-549; conditions: Homo sapiens, A549, 48 h, Table 1, 7-hydroxy derivatives of S-3
Procedure: as §1, §2, §3, §4

[7] = Table 7 (second), derivatives modified on 7-hydroxyl of S-3, HEK293T, Wnt3a conditioned medium, read-out: IC50 (μM), inhibitory activity on the Wnt signaling pathway

Row | SMILES | IC50 [1, 7] [µM] | IC50 [2] [µM] | IC50 [3] [µM] | IC50 [4] [µM] | IC50 [5] [µM] | IC50 [6] [µM] | IC50 ([1]; Table 9, HEK293T, Wnt3a conditioned medium, read-out: IC50(μM), inhibitory activity on the Wnt signaling pathway) [µM] | IC50 ([1]; read-out: IC50 (μM), inhibitory activity on the Wnt signaling pathway) [µM]
1 | C=C1C(=O)[C@]23CC[C@H]1CC2[C@@]12CCC[C@@](C)(COC1=O)C2C[C@H]3OC=O (some centres unmarked) [Compound 1a] | 18.3 ± 0.66 | 1.96 | 1.67 | 2.74 | 2.39 | 2.18 |  | 
2 | C=C1C(=O)[C@]23CC[C@H]1CC2[C@@]12CCC[C@@](C)(COC1=O)C2C[C@H]3OC(C)=O (some centres unmarked) [Compound 1b] | 14.2 ± 0.67 | 3.44 | 3.6 | 3.48 | 1.46 | 2.83 |  | 
3 | C=C1C(=O)[C@]23CC[C@H]1CC2[C@@]12CCC[C@@](C)(COC1=O)C2C[C@H]3OC(=O)CCl (some centres unmarked) [Compound 1c] | 17.9 ± 0.98 | 2.86 | 0.78 | 3.67 | 1.13 | 0.64 |  | 
4 | C=C1C(=O)[C@]23CC[C@H]1CC2[C@@]12CCC[C@@](C)(COC1=O)C2C[C@H]3OC(=O)CBr (some centres unmarked) [Compound 1d] | 28.8 ± 0.56 | 3 | 1.23 | 3.47 | 1.05 | 0.5 |  | 
5 | C=C1C(=O)C23CC[C@H]1CC2[C@@]12CCC[C@@](C)(COC1=O)C2C[C@H]3OC(=O)CN=[N+]=[N-] (some centres unmarked) [Compound 1e] | 22.14 ± 0.1 | 2.37 | 4.1 | 2.74 | 4.44 | 2.96 |  | 
6 | C=C1C(=O)C23CC[C@H]1CC2[C@@]12CCC[C@@](C)(COC1=O)C2C[C@H]3OC(=O)C(F)(F)F (some centres unmarked) [Compound 1f] | 20.2 ± 2.59 | 7.81 | 13 | 2.74 | 5.72 | 6.08 |  | 
7 | C=CC(=O)O[C@@H]1CC2[C@@]3(C)CCC[C@@]2(C(=O)OC3)C2C[C@@H]3CCC21C(=O)C3=C (some centres unmarked) [Compound 1g] | 30 ± 2.22 | 6.42 | 10.2 | 5.85 | 6.86 | 5.97 |  | 
8 | C=C1C(=O)C23CC[C@H]1CC2[C@@]12CCC[C@@](C)(COC1=O)C2C[C@H]3OC(=O)CCCl (some centres unmarked) [Compound 1h] | 20.2 ± 0.99 | 3.38 | 3.5 | 2.7 | 4.59 | 2.61 |  | 
9 | C=C1C(=O)C23CC[C@H]1CC2[C@@]12CCC[C@@](C)(COC1=O)C2C[C@H]3OC(=O)[C@@H](C)Cl (some centres unmarked) [Compound 1i] | 28.3 ± 2.76 | 2.5 | 3.35 | 2.58 | 3.37 | 2.59 |  | 
10 | C=C1C(=O)C23CC[C@H]1CC2[C@@]12CCC[C@@](C)(COC1=O)C2C[C@H]3OC(=O)c1ccccc1 (some centres unmarked) [Compound 1j] | 14.7 ± 0.18 | 3.95 | 0.74 | 3.71 | 2.99 | 2.97 |  | 
11 | C=C1C(=O)C23CC[C@H]1CC2[C@@]12CCC[C@@](C)(COC1=O)C2C[C@H]3OC(=O)c1ccc([N+](=O)[O-])cc1 (some centres unmarked) [Compound 1k] | 10.7 ± 0.39 | 0.69 | 2.89 | 0.8 | 0.86 | 1.05 |  | 
12 | C=C1C(=O)C23CC[C@H]1CC2[C@@]12CCC[C@@](C)(COC1=O)C2C[C@H]3OC(=O)c1ccc(OC)cc1 (some centres unmarked) [Compound 1l] | 18.6 ± 1.48 | 2.43 | 3.6 | 3.07 | 4.2 | 2.46 |  | 
13 | C=C1C(=O)C23CC[C@H]1CC2[C@@]12CCC[C@@](C)(COC1=O)C2C[C@H]3OC(=O)c1ccc(C(F)(F)F)cc1 (some centres unmarked) [Compound 1m] | 19 ± 1.61 | 2.19 | 2.65 | 1.97 | 0.89 | 1.73 |  | 
14 | C=C1C(=O)[C@@]23CC[C@@H](CC2[C@@]24CCC[C@@](C)(COC2)C14)C1(CO1)C3=O (some centres unmarked) [Compound 29] |  |  |  |  |  |  | > 60 | 
15 | C=C1C(=O)C23CC[C@@H](CC2[C@@]24CCC[C@@](C)(COC2)C14)C(=C)[C@@H]3O (some centres unmarked) [Compound 33] |  |  |  |  |  |  |  | 12.1 ± 1.25

From US10112918B2, “15-oxospiramilactone derivatives, preparation method and uses thereof” (Kunming Institute of Botany, The Chinese Academy of Sciences, priority 2013, dated 2018)
